Marks after values point to notes of the source that are not given here.

Assay [1] relates to Pseudomonas aeruginosa LPS. Description: Endotoxemia in vivo, serum endotoxin levels. Also on record: unit not given here. Conditions: iv 125 μg peptide preincubated with 2 μg LPS per mouse. As for the experimental part: (§1) LPS derived from P. aeruginosa and E. coli 0111:B4 or 055:B5 was purchased from List Biological Laboratories (Campbell, Calif.) and stored at 4° C. until use. A commercially available chromogenic Limulus amoebocyte lysate test (Whittaker, Walkersville, Md.) was used to measure endotoxin levels in all solutions and serum samples. Endotoxin levels in peptide solutions were determined to be less than about 0.1 ng/ml. The capacity of BG22, βpep-3 and BG16 to neutralize E. coli 055:B5 endotoxin in vitro was determined by mixing 0.01 ng of LPS with 5×10^−6M of each peptide and results were compared to that observed for 0.01 ng of LPS alone.
(§2) To study endotoxemia in a mammal, 500 μg of each peptide was added to 8 μg of Pseudomonas aeruginosa LPS in 2.0 ml of pyrogen-free phosphate buffered saline (PBS) ex vivo, and incubated for 30 minutes on a shaker at room temperature. Each mouse was injected via tail vein with 0.5 ml of the mixture (125 μg of BG22, BG16, or βpep-3 and 2 μg of LPS per mouse). Mice were euthanized at 30, 60, 90 and 120 minutes after injection and serum collected just prior to death was analyzed for endotoxin levels and TNF-α concentration.
All TNF-α and endotoxin measurements in duplicate or triplicate in each experiment. In vivo experiments were performed twice to confirm reproducibility. The results obtained were compared using the unpaired Student's t-test.

In another assay the test system is P. aeruginosa. The assay can be described thus: Bactericidal activity assay. Format: cell-based, Pseudomonas aeruginosa type 1. The note with it: 1.2 × 10^−7 M Peptide; 5 × 105 P. aeruginosa. The method, boiled down:
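Log-phase P. aeruginosa type 1 (smooth clinical isolate) was grown in brain heart infusion broth, washed, and diluted 1:10 from about 3×10^8 CFU/ml into 0.08M citrate phosphate buffer at pH 5.6 or pH 7.0. Peptides were tested from about […] to 4.1×10^−9M, with LD50 derived from dose response by linear regression.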

For assay [2], the system named is endotoxin from E. coli 055:B5. The assay can be described thus: Limulus amoebocyte lysate assay (E-TOXATE), endotoxin neutralization. Conditions: 5.0 × 10^−6 M Peptide; 0.02 U (0.2 pg) endotoxin from E. coli 055:B5; Table 4. The class given is biochemical. The method in brief: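 Peptide preincubated with LPS 5 min at room temperature in 1:2 pyrogen-free saline (pH 6.4), then amoebocyte lysate added (E-TOXATE kit). Neutralization of endotoxin activity scored by Limulus lysate reaction; BG38L served as positive control.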

The next assay concerns TNF-α. Description: Endotoxemia in vivo, serum TNF-α levels. Also on record: species or system mouse. Conditions: 90 minutes post-challenge; compared to mice receiving LPS without peptide, p<0.05. As for the experimental part: (§3) TNF-α concentrations were measured as described by Battafarano et al. (supra). Briefly, the TNF-α sensitive cell line WEHI was used in all assays of either RAW cell supernatant (in vitro) or serum (in vivo animal model). Concentrations were extrapolated from a standard curve based oil dilutions of purified TNF-α (Genzyme, Cambridge, Mass.), and all samples were examined in triplicate. Viability of the WEHI cells was assessed by measuring the extent of cellular crystal violet uptake by spectrophotometry at 590 nm. In this assay, absorbance was inversely correlated with cell death and lysis resulting from exposure of WEHI cells to TNF-α. The amount of TNF-α in each experimental sample was extrapolated from the standard curve.
as §2
All TNF-α and endotoxin measurements in duplicate or triplicate in each experiment. […]

Another assay deals with E. coli 055:B5 endotoxin. Description: Chromogenic Limulus amoebocyte lysate test, neutralization of endotoxin in vitro. Conditions: 0.01 ng of LPS mixed with 5×10^−6M peptide. The class given is biochemical. As for the experimental part: as §1
A further assay has as its system RAW 264.7 cells. Description: LPS-induced secretion of TNF-α in vitro by RAW 264.7 cells. The class given is cell-based. The note with it: 200 ng/ml E. coli 0111:B4 LPS preincubated with 10^−5 M peptide, 3 hours; compared to BG22, p=0.04. How it is done: […] RAW 264.7 cells were placed in each well of a 24-well culture plate and allowed to adhere. Immediately before LPS stimulation, medium was removed and cells were washed in serum-free Dulbecco's modified Eagle's medium (DMDM). Cells were incubated at 37° C. in a 10% CO2 atmosphere for 3 hours with: 1) DMEM alone, 2) E. coli 0111:B4 LPS alone, or 3) E. coli 0111:B4 LPS preincubated with BG22, βpep-3 or BG16. The concentration of LPS used in all groups was 200 ng/ml. To avoid non-specific inhibition of LPS-induced TNF-α secretion, 10^−5 M of each peptide was used in the experimental wells. At the end of the incubation period, macrophage supernatants were collected and assayed for TNF-α concentration.
as §3, with “The amount of TNF-α in each experimental sample was extrapolated from the standard curve.” left out

Regarding “HIKELQVKWKAQKRFLKMSIIVKLNDGRELSLD [βpep-3]”, the “endotoxemia in vivo, serum endotoxin levels” value was 11* in assay [1] (30 minutes after LPS/Peptide injection), 37* in assay [1] (60 minutes after LPS/Peptide injection), 63* in assay [1] (90 minutes after LPS/Peptide injection) and 66* in assay [1] (120 minutes after LPS/Peptide injection). Also, in the assay with P. aeruginosa, the “Bactericidal Activity, % killing” value is recorded as 24.9, n = 3%. Moreover, the “Endotoxin Neutralization, % neutralization” value in assay [2] is listed as 79.4, n = 10%. Further, in the assay on TNF-α, the “serum TNF-α levels (in words)” value is recorded as “decreased serum TNF-α levels”. In the assay on E. coli 055:B5 endotoxin, the “% Neutralization of Endotoxin” value was 81%. Besides, in the assay on RAW 264.7 cells, the “LPS-induced TNF-α secretion (in words)” value is “significantly greater decrease in TNF-α secretion”.

(Values after US7030087B2, “Synthetic approach to designed chemical structures” (priority 1996, dated 2006).)
